Here are results for 14 compounds from patent publication US10023591B2, “Heterocyclic derivatives and use thereof” (C&C RESEARCH LABORATORIES, priority 2014, dated 2018).

For assay [1], the system named is STAT3. In words: STAT3 reporter gene assay (luciferase), LNCaP stable cell line pSTAT3-TA-luc, IL-6 stimulation. The class given is cell-based, human. The conditions noted are these: Homo sapiens. On the procedure: 1-1) Experiment on the Inhibition of STAT3 Activity
A human prostate cancer cell line (LNCaP stable cell line; plasmid pSTAT3-TA-luc), which contains a stably operating STAT3 promoter, was cultured in RPMI1640 medium (Cat No. 11875, Life Technologies) containing 10% fetal bovine serum (FBS) (Cat No. SH30396, Thermo Scientific) and 150 μg/mL G-418 solution (Cat No. 04 727 894 001, Roche). The reporter gene assay using LNCaP stable cell line was performed in RPMI1640 medium containing 3% DCC-FBS without G-418 solution. LNCaP stable cells were plated in two (2) white 96-well plates with 30,000 cells/50 μL in each well. The cells were cultured at 37° C., under 5% CO2 for 24 hours, and then treated with the compounds listed in Examples which were diluted in various concentrations. Subsequently, IL-6 was added to each well with a final concentration of 10 ng/mL. Upon completion of the treatment with the compounds and IL-6, the cells were cultured at 37° C., under 5% CO2 for 24 hours. The plates were observed under microscope and drug precipitation and particular findings were investigated and recorded.
(§1) The luciferase assay and the cell viability assay were performed respectively with one of the two plates. For the luciferase assay, the liquid media in the 96-well plate was removed, and then, 20 μL, of passive cell lysis buffer was added to each well. After shaking the plate for 30 minutes, luciferase activities of each well were measured in a PHERAstar™ microplate reader (BMG LABTECH) using a luciferase assay system (Cat No. E1501, Promega). For the cell viability assay, the 96-well plate was placed at room temperature for 30 minutes, added with 20 μL/well of CellTiter-Glo solution (Cat No. G7573, Promega), and shaken for 10 minutes in order to measure cytotoxicity caused by the compounds listed in Examples with a PHERAstar™ microplate reader (BMG LABTECH). Wells without 0.1% DMSO and stimulation were used as a negative control and wells with 0.1% DMSO and stimulation were used as a positive control.
(§2) The results of evaluation on the inhibitory effect of the compounds listed in the Examples on the dimerization of STAT3 and STAT1 obtained via the STAT3 and STAT1 reporter gene assays are shown in Table 9 below.
For orientation: Reporter assays use an easily measured gene product as a stand-in for the process of interest.

Assay [2] relates to NCI-N87 stomach cancer cell line. In words: Cell growth inhibition assay, NCI-N87 (CellTiter-Glo). The class given is cell-based. Conditions: Homo sapiens; NCI-N87, 5,000 cells/well, 96 hours. As to the method: The inhibitory effects of the compounds of the present invention against the growth of cancer cells were evaluated as shown below. The cancer cell lines including prostate cancer cell lines (LNCaP, DU-145), stomach cancer cell line (NCI-N87), and breast cancer cell lines (MDA-MB-468) were cultured under the protocol provided by each supplier. A medium supplemented with 10 ng/mL of IL-6 was used for LNCaP, a prostate cancer cell line, when treated with a drug. Each type of cells to be used in experiments was sub-cultured in a 96-well plate by counting the exact number of cells using Tali™ Image-based Cytometer (Life Technologies). In a 96-well plate, DU-145 was employed with 3,000 cells/well; NCI-N87 was employed with 5,000 cells/well; and LNCaP and MDA-MB-468 were employed with 10,000 cells/well. The cells were treated with the compounds listed in Examples which were diluted in various concentrations. Upon completion of the compounds treatment, LNCaP, DU-145, NCI-N87 cells were cultured at 37° C. under 5% CO2 for 96 hours, and MDA-MB-468 cells were cultured at 37° C. in air for 96 hours. Subsequently, the cells were observed under microscope and drug precipitation and particular findings were investigated and recorded. And then, the 96-well plate was placed at room temperature for 30 minutes, added with 20 pt/well of CellTiter-Glo solution (Cat No. G7573, Promega) and shaken for 10 minutes, followed by being subjected to the measurement using PHERAstar™ microplate reader (BMG LABTECH) according to the supplier's general luminometer protocol. Wells where only culture liquid added without cell plating were used as a negative control, whereas wells where culture liquid containing 0.1% DMSO instead of the compounds listed in Examples were used as a positive control.
(In general: ATP-based viability assays read luminescence as a measure of living cells.)

For assay [3], the system named is STAT1. In words: STAT1 reporter gene assay (luciferase), U2OS stable cell line pGL4-STAT1-TA-luc, IFN-γ stimulation. The class given is cell-based, human. Conditions: Homo sapiens, IFN-γ 50 ng/mL, 8 hours, read-out: IC50 (μM) pSTAT1. On the procedure:
1-2) Experiment on the Inhibition of STAT1 Activity
A human osteosarcoma cell line (U2OS stable cell line; pGL4-STAT1-TA-luc), which contains a stably operating STAT1 promoter, was cultured in McCoy 5′A medium (Cat No. 16600, Life Technologies) containing 10% FBS (Cat No. SH30396, Thermo Scientific) and 1000 μg/mL G418 solution (Cat No. 04 727 894 001, Roche). The reporter gene assay using U2OS stable cell line was performed in McCoy 5′A medium containing 10% FBS without G-418 solution. U2OS stable cells were plated in two (2) white 96-well plates with 25,000 cells/50 pt in each well. The cells were cultured at 37° C., under 5% CO2 for 24 hours, and then treated with the compounds listed in Examples which were diluted in various concentrations. Subsequently, IFN-γ was added to each well with a final concentration of 50 ng/mL. Upon completion of the treatment with the compounds and IFN-γ, the cells were cultured at 37° C., under 5% CO2 for 8 hours. The plates were observed under microscope and drug precipitation and particular findings were investigated and recorded.
as §1, with “of” for “of the”, “μL” for “μL,”
as §2

As for `CC(C)(c1ccc2sc(C(=O)Nc3cc(Cl)nc(N4CCN5CCCC5C4)c3)cc2c1)S(C)(=O)=O` (stereo not drawn) [Example 104, N-(2-chloro-6-(hexahydropyrrolo[1,2-a]pyrazin-2(1H)-yl)pyridin-4-yl)-5-(2-(methylsulfonyl)propan-2-yl)benzo[b]thiophene-2-carboxamide], the IC50 in assay [1] was 1.4 µM; in assay [2], 1.7 µM; in assay [3], 8.7 µM.

In the case of `CC#CCOc1cc(OC(F)(F)F)cc(C(C)(C)c2cc(Cl)cc(NC(=O)c3cc4cc(C(C)(C)S(C)(=O)=O)ccc4s3)c2)c1` [Example 10, N-(3-(2-(3-(but-2-yn-1-yloxy)-5-(trifluoromethoxy)phenyl)propan-2-yl)-5-chlorophenyl)-5-(2-(methylsulfonyl)propan-2-yl)benzo[b]thiophene-2-carboxamide], the IC50 was 0.018 µM in assay [1], 0.01 µM in assay [2] and more than 50 µM in assay [3].

For `CC(C)(c1ccc2sc(C(=O)Nc3cc(F)nc(Oc4ccc(Cl)cc4)c3)cc2c1)S(C)(=O)=O` [Example 77, N-(2-(4-chlorophenoxy)-6-fluoropyridin-4-yl)-5-(2-(methylsulfonyl)propan-2-yl)benzo[b]thiophene-2-carboxamide], the IC50 in assay [1] is 0.1 µM; in assay [2], 0.052 µM; in assay [3], more than 50 µM.

Turning to `CC(C)(c1ccc2sc(C(=O)N3CCOc4c(Cl)cc(Oc5ccc(Cl)cc5)cc43)cc2c1)S(C)(=O)=O` [Example 96, (8-chloro-6-(4-chlorophenoxy)-2,3-dihydro-4H-benzo[b][1,4]oxazin-4-yl)(5-(2-(methylsulfonyl)propan-2-yl)benzo[b]thiophen-2-yl)methanone], the IC50 in assay [1] was 0.19 µM; in assay [2], 1.5 µM; in assay [3] it was more than 50 µM.

For the compound `Cc1cc(Oc2cc(NC(=O)c3cc4cc(C(C)(C)S(C)(=O)=O)ccc4s3)cc(Cl)n2)cs1` [Example 114, N-(2-chloro-6-((5-methylthiophen-3-yl)oxy)pyridin-4-yl)-5-(2-(methylsulfonyl)propan-2-yl)benzo[b]thiophene-2-carboxamide], the IC50 in assay [1] was 0.063 µM; in assay [2] it was 0.13 µM; in assay [3], more than 50 µM.

Take `Cc1nn(C)c(C)c1Oc1cc(NC(=O)c2cc3cc(C(C)(C)S(C)(=O)=O)ccc3s2)cc(Cl)n1` [Example 111, N-(2-chloro-6-((1,3,5-trimethyl-1H-pyrazol-4-yl)oxy)pyridin-4-yl)-5-(2-(methylsulfonyl)propan-2-yl)benzo[b]thiophene-2-carboxamide]: the IC50 in assay [1] was 1.3 µM; in assay [2], 2.4 µM; in assay [3], more than 50 µM.

With `Cn1cccc1C(C)(C)c1cc(Cl)cc(NC(=O)c2cc3cc(C(C)(C)S(C)(=O)=O)ccc3s2)c1` [Example 31, N-(3-chloro-5-(2-(1-methyl-1H-pyrrol-2-yl)propan-2-yl)phenyl)-5-(2-(methylsulfonyl)propan-2-yl)benzo[b]thiophene-2-carboxamide], the IC50 in assay [1] is 0.0025 µM; in assay [2], 0.24 µM; in assay [3] it was more than 50 µM.

Turning to `CC(C)(c1ccc2sc(C(=O)Nc3cc(Cl)nc(N4CCC5CCCCC5C4)c3)cc2c1)S(C)(=O)=O` (stereo not drawn) [Example 108, N-(2-chloro-6-(octahydroisoquinolin-2(1H)-yl)pyridin-4-yl)-5-(2-(methylsulfonyl)propan-2-yl)benzo[b]thiophene-2-carboxamide], the IC50 was 0.085 µM in assay [1], 0.13 µM in assay [2] and more than 50 µM in assay [3].

Regarding `O=C(Nc1cc(Cl)nc(Oc2ccc(Cl)cc2)c1)c1cc2cc(C3CCCCS3(=O)=O)ccc2s1` (stereo not drawn) [Example 74, N-(2-chloro-6-(4-chlorophenoxy)pyridin-4-yl)-5-(1,1-dioxidotetrahydro-2H-thiopyran-2-yl)benzo[b]thiophene-2-carboxamide], the IC50 in assay [1] was 0.12 µM; in assay [2], 0.61 µM; in assay [3], more than 50 µM.

For `CC(C)(c1cc(Cl)cc(NC(=O)c2cc3cc(C(C)(C)S(C)(=O)=O)ccc3s2)c1)c1cc(OCC(F)F)cc(OC(F)(F)F)c1` [Example 13, N-(3-chloro-5-(2-(3-(2,2-difluoroethoxy)-5-(trifluoromethoxy)phenyl)propan-2-yl)phenyl)-5-(2-(methylsulfonyl)propan-2-yl)benzo[b]thiophene-2-carboxamide], the IC50 in assay [1] is 0.01 µM; in assay [2], 0.028 µM; in assay [3] it was more than 50 µM.

Take `CC(C)(c1ccc2sc(C(=O)Nc3cc(Cl)nc(OC4CC5C=CC4C5)c3)cc2c1)S(C)(=O)=O` (stereo not drawn) [Example 78, N-(2-(bicyclo[2.2.1]hept-5-en-2-yloxy)-6-chloropyridin-4-yl)-5-(2-(methylsulfonyl)propan-2-yl)benzo[b]thiophene-2-carboxamide]: the IC50 in assay [1] is 0.05 µM; in assay [2], 0.2 µM; in assay [3], more than 50 µM.

Regarding `Cn1cc(Oc2cc(NC(=O)c3cc4cc(C(C)(C)S(C)(=O)=O)ccc4s3)cc(Cl)n2)cn1` [Example 112, N-(2-chloro-6-((1-methyl-1H-pyrazol-4-yl)oxy)pyridin-4-yl)-5-(2-(methylsulfonyl)propan-2-yl)benzo[b]thiophene-2-carboxamide], the IC50 turned out to be 0.32 µM in assay [1], 1 µM in assay [2] and 18.9 µM in assay [3].

Turning to `CC(C)(c1ccc2sc(C(=O)Nc3cc(Cl)nc(N4CCN5CCCCC5C4)c3)cc2c1)S(C)(=O)=O` (stereo not drawn) [Example 106, N-(2-chloro-6-(octahydro-2H-pyrido[1,2-a]pyrazin-2-yl)pyridin-4-yl)-5-(2-(methylsulfonyl)propan-2-yl)benzo[b]thiophene-2-carboxamide], the figures for the IC50 in assay [1], in assay [2] and in assay [3] were 0.43 µM, 1.8 µM and 8.5 µM, respectively.

As to `CC(C)(c1ccc2sc(C(=O)Nc3cc(Cl)nc(Oc4ccc(F)cc4)c3)cc2c1)S(C)(=O)=O` [Example 68, N-(2-chloro-6-(4-fluorophenoxy)pyridin-4-yl)-5-(2-(methylsulfonyl)propan-2-yl)benzo[b]thiophene-2-carboxamide], the IC50 was 0.011 µM in assay [1], 0.03 µM in assay [2] and more than 50 µM in assay [3].

One may read the IC50 as the midpoint of a concentration-inhibition curve.
